Test: UV absorption properties (λmax and specific absorbance E 1/1) of the light protection agents
Format: physicochemical
Design: unit not given here
Text: Further Examples 2 to 23 as in Tables 1, 2 and 3 are obtained analogously. Substituents in the aromatic rings can also be introduced later.

[1] = Table 3, specific absorbance at λmax
[2] = Table 1, specific absorbance at λmax
[3] = Table 2, specific absorbance at λmax

In the case of `COC(=O)/C(C#N)=C1\Nc2ccc(C(=O)c3ccccc3)cc2N1` [Example 21], the λmax (Table 3, UV absorption maximum) is reported as 348 and the “E^11” value [1] is reported as 740.

For `CN1/C(=C(\C#N)C(=O)OCCS(=O)(=O)O)Sc2ccccc21` [Example 23], the λmax (Table 3, UV absorption maximum) was 340 and the “E^11” value [1] was 1160.

In the case of `COC(=O)C(C#N)=C1Nc2ccc(OC)cc2N1` [Example 5], the λmax (Table 1, UV absorption maximum) is reported as 328 and the “E^11” value [2] is reported as 1601.

In the case of `COC(=O)C(C#N)=c1[nH]c2cccc3cccc([nH]1)c32` [Example 24], the λmax (Table 3, UV absorption maximum) is reported as 296 and the “E^11” value [1] is reported as 1503.

With `CCOC(=O)c1ccc2c(c1)NC(=C(C#N)C(=O)OC)N2` [Example 7] the λmax (Table 1, UV absorption maximum) was 332 and the “E^11” value [2] was 952.

With `N#CC(C#N)=C1Nc2ccccc2O1` [Example 10] the λmax (Table 1, UV absorption maximum) was 308 and the “E^11” value [2] was 1844.

In the case of `COc1ccc2c(c1)NC(=C(C#N)C#N)N2` [Example 4], the λmax (Table 1, UV absorption maximum) is reported as 326 and the “E^11” value [2] is reported as 1784.

In the case of `N#CC(C#N)=C1Nc2ccccc2S1` [Example 12], the λmax (Table 1, UV absorption maximum) is reported as 334 and the “E^11” value [2] is reported as 1776.

In the case of `COC(=O)/C(C#N)=C1\Sc2ccccc2N1CCCS(=O)(=O)O` [Example 20], the λmax (Table 3, UV absorption maximum) is reported as 340 and the “E^11” value [1] is reported as 1200.

In the case of `Cc1ccc2c(c1)NC(=C(C#N)C#N)N2` [Example 8], the λmax (Table 1, UV absorption maximum) is reported as 318 and the “E^11” value [2] is reported as 2055.

With `N#CC(C#N)=C1Nc2ccccc2N1` [Example 2] the λmax (Table 1, UV absorption maximum) was 314 and the “E^11” value [2] was 2297.

With `COC(=O)C(C#N)=C1Nc2ccccc2O1` [Example 11] the λmax (Table 1, UV absorption maximum) was 310 and the “E^11” value [2] was 1778.

For `CCCCCCN1C(=C(C#N)C(=O)OCC(CC)CCCC)Sc2ccccc21` (stereo not shown) [Example 15], the λmax (Table 2, UV absorption maximum) was 340 and the “E^11” value [3] was 830.

In the case of `COC(=O)C(C#N)=C1Nc2ccccc2N1` [Example 3], the λmax (Table 1, UV absorption maximum) is reported as 316 and the “E^11” value [2] is reported as 1986.

With `CCOC(=O)c1ccc2c(c1)NC(=C(C#N)C#N)N2` [Example 6] the λmax (Table 1, UV absorption maximum) was 334 and the “E^11” value [2] was 821.

For `CCCCCCN1C(=C(C#N)C(=O)OC2CC(C)CC(C)(C)C2)Sc2ccccc21` (stereo not shown) [Example 16], the λmax (Table 2, UV absorption maximum) was 340 and the “E^11” value [3] was 790.

In the case of `COC(=O)C(C#N)=C1Nc2ccc(C)cc2N1` [Example 9], the λmax (Table 1, UV absorption maximum) is reported as 320 and the “E^11” value [2] is reported as 1854.

With `CCCCOC(=O)C(C#N)=C1Sc2ccccc2N1CCCC` [Example 18] the λmax (Table 2, UV absorption maximum) was 340 and the “E^11” value [3] was 1250.

In the case of `CC1CC(OC(=O)C(C#N)=C2Sc3ccccc3N2C)CC(C)(C)C1` (stereo not shown) [Example 14], the λmax (Table 2, UV absorption maximum) is reported as 340 and the “E^11” value [3] is reported as 1090.

For `CCCCCCN1C(=C(C#N)C(=O)OC)N(CCCCCC)c2ccccc21` [Example 22], the λmax (Table 3, UV absorption maximum) was 325 and the “E^11” value [1] was 970.

For `COC(=O)C(C#N)=C1Nc2ccccc2S1` [Example 1], the λmax (Table 1, UV absorption maximum) was 336 and the “E^11” value [2] was 1723.

In the case of `CCCCC(CC)COC(=O)/C(C#N)=C1\Sc2ccccc2N1C` (stereo not shown) [Example 13], the λmax (Table 2, UV absorption maximum) is reported as 340 and the “E^11” value [3] is reported as 1150.

For `CCCCCCN1C(=C(C#N)C(=O)OC)Sc2ccccc21` [Example 17], the λmax (Table 2, UV absorption maximum) was 340 and the “E^11” value [3] was 1200.

— patent US6603014B1, “Use of cyclic enamines as light protection agents” (BASF Aktiengesellschaft, priority 1999, dated 2003)
